Measurements reported in patent publication US6881710B1, “Personal care products based upon surfactants based upon alkyl polyglucoside quaternary compounds” (Colonial Chemical Inc., priority 2004, dated 2005).

Assays:
[1] = modified Ross-Miles Foam Test; format: physicochemical; settings: 1% active in water, 66-67 °C, shaken ten times; time point not stated; higher is better
Source text: Sodium Lauryl sulfate is one of the most commonly used anionic surfactants. While it is a good detergent and produces large volume of foam, it is irritating and has no conditioning properties. In fact, it strips the oil from hair leaving the hair dry and fly away. Compounds of the present invention compare favorably with sodium lauryl sulfate in foam levels, and detergency, but also are non-irritating, conditioning and provide self-preserving properties. This coupled with the fact that they are derived from natural sugars, makes them the perfect single surfactant for personal care formulation. The following compounds were evaluated at 1% active in water. The higher the foam, the better.
The foaming properties of the compositions were also evaluated by a modified “Ross-Miles Foam Test”. This compares the foaming tendencies of different products or surfactants in water at various temperatures.
The test is carried out as follows: • 1. 500 ml. of water (the water should be representative of the system^1) was added to a 1000 ml. graduated cylinder having a cylinder diameter 65 mm. Then 18.0-ppm ortho phosphate is added to the cylinder as a buffer. The test is carried out at a temperature of 66° C. to 67° C. • 2. The concentration tested was 1% by weight solids. • 3. Then cylinder with contents is shaken vertically at the specified temperature ten times (the times shaken equals the number of cycles). After the tenth time, the initial foam height (t=0) is recorded in ml. Then the foam level at t=5 minutes and t=30 minutes is recorded. Results

[2] = salon half head study of conditioning (combability and softness) and wet comb of washed hair; format: in vivo; settings: 5% solution; rated by the test person, scale 1 (poor) to 5 excellent
Description: Conditioning was studied. The wet comb properties of hair washed in the salon in half head studies was conducted. Evaluation of the dry hair was also evaluated. A 5% solution of the composition of the present invention was evaluated. The person having the test run was asked to evaluate the following samples for combability and softness of the hair. The scale was 1 (poor) to 5 excellent.

[3] = test system: Pseudomonas aeruginosa; Staphylococcus aureus; Candida albicans; Aspergillus niger; experiment: antimicrobial zone inhibition technique, activity summary over four test organisms; format: cell-based; settings: 0.50% by weight in water; for Comments (antimicrobial activity in words): B = bacteria, Y = yeast, M = mold; for Score (sum of the four organism scores): lower score = greater activity
Description: (§1) A study was conducted to determine the antimicrobial capability of four (4) SugaQuat (alkyl polyglucoside) variations utilizing the zone inhibition technique. The test materials were evaluated for gross antimicrobial activity against a series of four (4) test organisms: Pseudomonas aeruginosa (Gram-negative bacteria); Staphylococcus aureus (Gram-positive bacteria); Candida albicans (yeast) and Aspergillus niger (mold) utilizing the zone inhibition technique.
(§2) • Sodium Lauryl Sulfate (0.50% by weight concentration in water). • Sodium Laureth 2 Sulfate (0.50% by weight concentration in water). • Example 3 (0.50% by weight concentration in water). • Example 4 (0.50% by weight concentration in water). • Example 8 (0.50% by weight concentration in water). • Example 9 (0.50% by weight concentration in water). • Example 7 (0.50% by weight concentration in water). Activity Summary • SCORING: • 1=Excellent; 2=Very Good; 3=Good; 4=OK (moderate); 6=Poor; 8=No Activity Control Compounds

[4] = salon half head study of detergency (cleanliness of washed hair); format: in vivo; settings: 5% solution; rated by the test person, scale 1 (poor) to 5 excellent
Description: Detergency was also studies. The cleanliness of hair washed in the salon in half head studies was conducted. A 5% solution of the composition of the present invention was evaluated. The person having the test run was asked to evaluate the following samples for cleanliness of the hair. The scale was 1 (poor) to 5 excellent.

[5] = test system: Staphylococcus aureus (Gram-positive bacteria); experiment: antimicrobial zone inhibition technique; format: cell-based; design: key: 1=Excellent; 2=Very Good; 3=Good; 4=OK (moderate); 6=Poor; 8=No Activity; settings: 0.50% by weight in water; lower score = greater activity
Description: as §1, §2

Candida albicans (yeast) = experiment: antimicrobial zone inhibition technique; format: cell-based; design: key: 1=Excellent; 2=Very Good; 3=Good; 4=OK (moderate); 6=Poor; 8=No Activity; settings: 0.50% by weight in water; lower score = greater activity
Description: as §1, §2

[6] = test system: Pseudomonas aeruginosa (Gram-negative bacteria); experiment: antimicrobial zone inhibition technique; format: cell-based; design: key: 1=Excellent; 2=Very Good; 3=Good; 4=OK (moderate); 6=Poor; 8=No Activity; settings: 0.50% by weight in water; lower score = greater activity
Description: as §1, §2

Aspergillus niger (mold) = experiment: antimicrobial zone inhibition technique; format: cell-based; design: key: 1=Excellent; 2=Very Good; 3=Good; 4=OK (moderate); 6=Poor; 8=No Activity; settings: 0.50% by weight in water; lower score = greater activity
Description: as §1, §2

| Compound | Foam Level [1] [mL] | Conditioning [2] | Wet Comb [2] | Comments (antimicrobial activity in words) [3] | Score (sum of the four organism scores) [3] | Detergency Result (cleanliness of the hair) [4] | Sa activity score [5] | Ca activity score (Candida albicans (yeast)) | Psa activity score [6] | An activity score (Aspergillus niger (mold)) |
| --- | --- | --- | --- | --- | --- | --- | --- | --- | --- | --- |
| CCCCCCCCCCCCOS(=O)(=O)[O-].[Na+] [Sodium Lauryl Sulfate] | 900 | 1 | 1 | No activity | 32 | 5 | 8 | 8 | 8 | 8 |
| Sodium Laureth 2 Sulfate | 770 | 1 | 1 | No activity | 32 | 4 | 8 | 8 | 8 | 8 |
| Sodium laureth 1-sulfate | 750 |  |  |  |  |  |  |  |  |  |
| Sodium laureth 3-sulfate | 720 |  |  |  |  |  |  |  |  |  |
